The text below walks through data of article PMC10819771 (Pharmaceuticals, 2023).

As usually defined, the IC50 is the concentration that inhibits the measured activity by half.

Test [1] has as its system K562. The test is described as follows: MTS cell proliferation assay, K562. The following applies: for IC50: Homo sapiens, K562, 72 h, MTS, 3-day incubation, leukemia cells, read-out: IC50 Values (μM) ± SEM K562; for Selectivity Index HEK293/K562: IC50 HEK293 / IC50 K562. It counts as cell-based, human. Summed up: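 K562 cells in RPMI 1640 with 10% FCS were exposed in quadruplicate to 0, 1, 5, 10, 20 and 50 μM compound for 1, 2 and 3 days. Viability was read by MTS conversion after 3 h at 37 °C, measured at 490 nm. CC50 after 3 days was obtained by linear regression (μM ± SD).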
On the technique in general: Formazan colour is commonly taken as a measure of viable cells.

The test system of test [2] is HEK293. The test is described as follows: MTT proliferation test on normal cells, HEK293. The following applies: Homo sapiens, normal epithelial cells, cytotoxicity, read-out: IC50 Values (μM) ± SEM HEK293. In kind it is cell-based. The protocol: The MTT proliferation test on the epithelial cell line HEK293 was performed as pre-viously described. The 50% inhibiting concentrations (IC50) were determined by linear regression analysis.

Test [3] relates to Fc-MYCT (DNA, G4) GGGTGGGTAGGGTGGGTAA
The test is described as follows: FRET melting. The following applies: 1 mM K+, 99 mM Li+ (table footnote says 10 mM KCl, 90 mM LiCl); 10 mM lithium cacodylate pH 7.2; 0.2 µM DNA, 2 µM compound.

Test [4] concerns FK-RAST (DNA, G4) AGGGCGGTGTGGGAAGAGGGA
The test is described as follows: FRET melting. The note with it: 10 mM K+, 90 mM Li+; 10 mM lithium cacodylate pH 7.2; 0.2 µM DNA, 2 µM compound.

Test [5] relates to FBCL-2T (DNA, G4) GGGCGCGGGAGGAAGGGGGCGGG
Briefly: FRET melting. The following applies: 10 mM K+, 90 mM Li+; 10 mM lithium cacodylate pH 7.2; 0.2 µM DNA, 2 µM compound.

Test [6] deals with F21T (DNA, G4) GGGTTAGGGTTAGGGTTAGGG
Briefly: FRET melting. The note with it: 10 mM K+, 90 mM Li+; 10 mM lithium cacodylate pH 7.2; 0.2 µM DNA, 2 µM compound.

The test system of test [7] is FdxT (DNA, hairpin, hexaethylene glycol linker between 10 and 11) TATAGCTATATATAGCTATA
The test is described as follows: FRET melting. The note with it: 10 mM K+, 90 mM Li+; 10 mM lithium cacodylate pH 7.2; 0.2 µM DNA, 2 µM compound.

Test [8] deals with telomerase. Briefly: Telomerase activity (TRAP assay) in MCF-7 cell lysates. It counts as biochemical, human. The following applies: MCF-7 cell lysate. The protocol:
Telomerase activity was assessed using the TRAP assay kit (TRAPeze® RT telomerase detection kit, Chemicon, Millipore Sigma S7700, Merck KGaA, Darmstadt, Germany) according to manufacturer’s instructions with some modifications. Briefly, […] in CHAPS lysis buffer and proteins were extracted. Protein extracts and various concentrations of compounds (0 to 5 µM) were used to extend a synthetic telomeric DNA using an enzymatic reaction (30 °C during 20 min), followed by a quantification of telomeric DNA using a telomeric PCR amplification: 95 °C for 3 min, 2 cycles of 95 °C for 20 s, and 49 °C for 20 s, followed by 30 cycles 95 °C for 20 s and 60 °C for 20 s with signal acquisition) in a Stratagene Mx3005P system (Agilent, Les Ulis, France) using specific telomeric PCR quantitative primers. Each sample was measured in technical duplicate with control DNA. For each drug and each dilution, we used biological triplicate of cell lysates.

`CN(C)CCCNCc1ccc(-c2cc(-c3ccc(CNCCCN(C)C)cc3)c3cc(-c4ccccc4)ccc3n2)cc1` [Compound 13a, 2,4-bis{4-[(3-dimethylaminopropyl)aminomethyl]phenyl}-6-phenylquinoline]: the results for the IC50 in test [1] and in test [2] were 10 ± 0.4 µM and more than 30 µM, respectively. Besides, in test [1], the “Selectivity Index HEK293/K562” value was more than 3.0.

On to `CN1CCN(CCCCNCc2ccc(-c3nc(-c4ccc(CNCCCCN5CCN(C)CC5)cc4)c4cc(-c5ccccc5)ccc4n3)cc2)CC1` [Compound 12e, 2,4-bis{4-[(4-(4-methylpiperazin-1-yl)butyl)aminomethyl]phenyl}-6-phenylquinazoline], for which the IC50 in test [1] came to 13 ± 0.2 µM. Also, the ΔT1/2 in test [3] was determined as 19.5 ± 1.0 °C; in test [4], 33.1 ± 2.1 °C; in test [5], 22.7 ± 0.4 °C; in test [6], 33.9 ± 0.5 °C; in test [7], 5.4 ± 1.6 °C.

`CN1CCN(CCCCNCc2ccc(-c3cc(-c4ccc(CNCCCCN5CCN(C)CC5)cc4)c4cc(-c5ccccc5)ccc4n3)cc2)CC1` [Compound 13d, 2,4-bis{4-[(4-(4-methylpiperazin-1-yl)butyl)aminomethyl]phenyl}-6-phenylquinoline]: in test [1], the IC50 was found to be 14 ± 0.3 µM. The molecule further showed a ΔT1/2 in test [5] of 5.0 ± 1.1 °C.

In the case of `CN(C)CCCNCc1ccc(-c2nc(-c3ccc(CNCCCN(C)C)cc3)c3cc(-c4ccccc4)ccc3n2)cc1` [Compound 12b, 2,4-bis{4-[(3-dimethylaminopropyl)aminomethyl]phenyl}-6-phenylquinazoline], the IC50 in test [1] was 14 ± 0.3 µM; in test [2], more than 30 µM. Besides, the “Selectivity Index HEK293/K562” value in test [1] is on record as more than 2.14. The “telomerase activity compared to control” value in test [8] (5 µM compound) is reported as “reduced drastically”. Also, the “concentration from which MCF-7 telomerase activity is decreased” value in test [8] (0 to 5 µM tested) amounted to 0.5 µM.
